This test has as its system TFEB. Description: TFEB nuclear translocation assay, HeLa wt cells. Format: cell-based. The note with it: 2 hrs compound treatment, Table 1 does not say HeLa wt or TRPML1 KO. How it is done:
For the TFEB nuclear translocation assay, HeLa wt or HeLa TRPML1 KO cells were plated at 2700 cells/well into black-walled, 384-well Cell carrier Ultra tissue culture treated plates in complete media and incubated overnight. The next day, cells are treated for 2 hrs with compounds and incubated at 37° C. Cells were then fixed for 30 minutes at room temperature in 4% final PFA and washed five times with 90 μL PBS. PBS is aspirated from the wells and the cells are blocked with 7.5 μL blocking buffer (1:1 PBS/Odyssey block buffer containing 0.1% triton x-100 and 1% goat serum). After 30-60 minutes of block, 7.5 μL of primary anti-TFEB (rabbit) antibody is added for a final dilution of 1:200 antibody in 15 μL blocking buffer. Plates are incubated overnight at 4° C. The following day, plates are washed again into PBS, 90 μL with 5 washes, all PBS is aspirated from the wells and the cells are incubated for 1 hr in 1:1000 goat-anti rabbit Alexa 488 secondary antibody, also containing 10 μg/mL Hoechst 33342. After the 1 hr room temperature incubation, plates are washed a final time into PBS, sealed with foil and imaged with an automated epifluorescence microscopy (PerkinElmer Operetta CLS). Four different fields were imaged per well using ×20 magnification for DAPI and FITC filter sets. Images were quantified using PerkinElmer Harmony software, briefly: apply flatfield correction (basic/advanced) for input images. Use the Find Nuclei building block with channel set at Hoechst to find the nuclei. Use the Find cytoplasm building block with channel set to Alexa 488 to find the cytoplasm. Use select cell region with Channel set at Alexa 488 and region of interest as Nuclei and define outer border at 0 μm and inner at 45 μm to cover complete nuclei. Use select cell region with Channel set at Alexa 488 and region of interest as ring region and define outer border at −5 μm and inner at 0 μm to define a ring around the nucleus. Use the find calculate intensity parameter to calculate intensity of the nuclear region and the ring region. Define results as Number of nuclei and ratio of A/B where A is Intensity of Nuclei and B is intensity of the ring region.
The compound numbers correspond to the compound numbers above in Tables A or B. Compounds having an activity designated as “++++” provided an AC50 of ≤2.00 μM; compounds having an activity designated as “+++” provided an AC50 of 2.01-8.00 μM; compounds having an activity designated as “++” provided an AC50 of 8.01-9.99 μM; and compounds having an activity designated as “+” provided an AC50 of ≥10.00 μM.

Usually AC50 stands for the concentration at which the activity in the assay is half-maximal. A high value points to weaker potency.

With `CN(C)S(=O)(=O)c1ccc(S(=O)(=O)Nc2nc(N3CCN(c4ccc(Cl)cc4F)CC3)n(C)n2)cc1` [Compound A-59, N1-(5-(4-(4-chloro-2-fluorophenyl)piperazin-1-yl)-1-methyl-1H-1,2,4-triazol-3-yl)-N4,N4-dimethylbenzene-1,4-disulfonamide], for the setting “Homo sapiens, HeLa, 2 h”, the concentration at half-maximal activity (AC50) is ≥ 10 µM. The same measure, in the same setting: as for `Cc1ccc(S(=O)(=O)Nc2ccccc2N2CCN(C(=O)C(O)c3ccccc3)CC2)cc1` (centres unmarked) [Compound A-349, N-{2-[4-(2-hydroxy-2-phenylacetyl)piperazin-1-yl]phenyl}-4-methylbenzene-1-sulfonamide], the figure is ≥ 10 µM; as for `CS(=O)(=O)c1ccc(S(=O)(=O)Nc2ccccc2N2CCC3(CCO3)CC2)cc1` [Compound A-333, 4-methanesulfonyl-N-(2-{1-oxa-7-azaspiro[3.5]nonan-7-yl}phenyl)benzene-1-sulfonamide], ≥ 10 µM. Still for that read-out and setting: as for `CCS(=O)(=O)c1ccc(S(=O)(=O)Nc2ccccc2N2CCN(C(=O)C(C)(C)C)CC2)cc1` [Compound A-351, N-{2-[4-(2,2-dimethylpropanoyl)piperazin-1-yl]phenyl}-4-(ethanesulfonyl)benzene-1-sulfonamide], the figure is ≥ 10 µM; as for `O=S(=O)(Nc1cccc(F)c1N1CCC(CN2C3CCC2COC3)CC1)c1ccc(C(F)(F)C2CC2)cc1` [Compound A-919, 4-(cyclopropyldifluoromethyl)-N-{3-fluoro-2-[4-({3-oxa-8-azabicyclo[3.2.1]octan-8-yl}methyl)piperidin-1-yl]phenyl}benzene-1-sulfonamide], ≤ 2 µM; as for `CCOC(=O)c1ccc(S(=O)(=O)Nc2ccccc2N2CCC(c3ccc(Cl)cc3F)CC2)cc1` [Compound A-41, ethyl 4-({2-[4-(4-chloro-2-fluorophenyl)piperidin-1-yl]phenyl}sulfamoyl)benzoate], ≥ 10 µM.

The compound `CC1(C)CC2(CCN(c3ccccc3NS(=O)(=O)c3cccc(C4OCCO4)c3)CC2)CO1` [Compound A-670, N-(2-{3,3-dimethyl-2-oxa-8-azaspiro[4.5]decan-8-yl}phenyl)-3-(1,3-dioxolan-2-yl)benzene-1-sulfonamide] showed a half-maximal activity concentration (AC50) (Homo sapiens, HeLa, 2 h) of 2.01 to 8 µM. `COC(=O)N1CCN(c2ccccc2NS(=O)(=O)c2ccc(S(=O)(=O)N(C)C)cc2)CC1` [Compound A-309, methyl 4-{2-[4-(dimethylsulfamoyl)benzenesulfonamido]phenyl}piperazine-1-carboxylate] gave an AC50 (Homo sapiens, HeLa, 2 h) of 2.01 to 8 µM. Same read-out and setting: as for `CC(C)(C)C(=O)N1CCN(c2ccccc2NS(=O)(=O)c2ccc(CC(F)(F)F)cc2)CC1` [Compound A-567, N-{2-[4-(2,2-dimethylpropanoyl)piperazin-1-yl]phenyl}-4-(2,2,2-trifluoroethyl)benzene-1-sulfonamide], the figure is ≥ 10 µM; as for `CC(c1cccc(F)c1N1CCC(CN2C[C@@H](C)C(F)(F)[C@@H](C)C2)CC1)S(=O)(=O)c1ccc(S(=O)(=O)N(C)C)cc1` (stereo partly drawn) [Compound A-970, 4-{1-[2-(4-{[(3R,5S)-4,4-difluoro-3,5-dimethylpiperidin-1-yl]methyl}piperidin-1-yl)-3-fluorophenyl]ethanesulfonyl}-N,N-dimethylbenzene-1-sulfonamide], ≤ 2 µM. Same read-out and setting: as for `CC(N1CCN(c2ccccc2NS(=O)(=O)c2ccc(S(=O)(=O)N(C)C)cc2)CC1)C(F)(F)F` (centres unmarked) [Compound A-456, N1,N1-dimethyl-N4-{2-[4-(1,1,1-trifluoropropan-2-yl)piperazin-1-yl]phenyl}benzene-1,4-disulfonamide], the figure is ≤ 2 µM; as for `COc1ccc(N2CCOCC2)c(NS(=O)(=O)c2ccc3c(c2)CCC3)c1` [Compound A-521, N-[5-methoxy-2-(morpholin-4-yl)phenyl]-2,3-dihydro-1H-indene-5-sulfonamide], ≤ 2 µM; as for `CN1Cc2cc(S(=O)(=O)Nc3ccccc3N3CCC(c4ccc(Cl)cc4F)CC3)ccc2C1=O` [Compound A-61, N-{2-[4-(4-chloro-2-fluorophenyl)piperidin-1-yl]phenyl}-2-methyl-1-oxo-2,3-dihydro-1H-isoindole-5-sulfonamide], ≥ 10 µM. On to `Cc1cnc(N2CCC(CN3CCC(F)(F)CC3)CC2)c(C(C)S(=O)(=O)c2ccc(S(=O)(=O)N(C)C)cc2)c1` (single isomer, unassigned) [Compound A-995, 4-((1-(2-(4-((4,4-difluoropiperidin-1-yl)methyl)piperidin-1-yl)-5-methylpyridin-3-yl)ethyl)sulfonyl)-N,N-dimethylbenzenesulfonamide], for which the AC50 was ≥ 10 µM. Regarding `CN(C)S(=O)(=O)c1ccc(C(C)(C)Nc2ccccc2N2CCN(Cc3ccccc3)CC2)cc1` [Compound A-733, 4-(2-{[2-(4-benzylpiperazin-1-yl)phenyl]amino}propan-2-yl)-N,N-dimethylbenzene-1-sulfonamide], the concentration at half-maximal activity (AC50) (Homo sapiens, HeLa, 2 h) was in the range of 2.01 to 8 µM. On the same count and under the same terms, as for `COc1ccc(S(=O)(=O)Nc2ccccc2-c2ncc(F)cc2F)cc1` [Compound A-180, N-(2-(3,5-difluoropyridin-2-yl)phenyl)-4-methoxybenzenesulfonamide], the figure is 8.01 to 9.99 µM; as for `CC(c1cccc(F)c1N1CCC2(CC1)COC(C)(C)C2)S(=O)(=O)c1ccc(S(=O)(=O)N(C)C)cc1` (centres unmarked) [Compound A-752, 4-[1-(2-{3,3-dimethyl-2-oxa-8-azaspiro[4.5]decan-8-yl}-3-fluorophenyl)ethanesulfonyl]-N,N-dimethylbenzene-1-sulfonamide], ≤ 2 µM; as for `CC(C)(C)C(=O)N1CCN(c2ccccc2NS(=O)(=O)Cc2ccccc2)CC1` [Compound A-410, N-{2-[4-(2,2-dimethylpropanoyl)piperazin-1-yl]phenyl}-1-phenylmethanesulfonamide], 2.01 to 8 µM.

As to `COC1(CN2C[C@@H](C)O[C@@H](C)C2)CCN(c2c(F)cccc2NS(=O)(=O)c2ccc(S(=O)(=O)N(C)C)cc2)CC1` [Compound A-786, N4-[2-(4-[(2R,6S)-2,6-dimethylmorpholin-4-yl]methyl-4-methoxypiperidin-1-yl)-3-fluorophenyl]-N1,N1-dimethylbenzene-1,4-disulfonamide], the AC50 (Homo sapiens, HeLa, 2 h) is ≤ 2 µM. On the same count and under the same terms, as for `CN1CC(c2ccccc2)C2(CCN(c3ccccc3NS(=O)(=O)c3ccc(S(=O)(=O)N(C)C)cc3)CC2)C1=O` (centres unmarked) [Compound A-318, N1,N1-dimethyl-N4-(2-{2-methyl-1-oxo-4-phenyl-2,8-diazaspiro[4.5]decan-8-yl}phenyl)benzene-1,4-disulfonamide], the figure is 2.01 to 8 µM; as for `CC(c1cccc(F)c1N1CCC(CN2C3CCC2COC3)CC1)S(=O)(=O)c1ccc2c(c1)CCC2` (centres unmarked) [Compound A-908, 8-[(1-{2-[1-(2,3-dihydro-1H-indene-5-sulfonyl)ethyl]-6-fluorophenyl}piperidin-4-yl)methyl]-3-oxa-8-azabicyclo[3.2.1]octane], 2.01 to 8 µM; as for `COc1ccc(N2CCOCC2)c(NS(=O)(=O)Cc2ccc3c(c2)COCC3)c1` [Compound A-609, 1-(3,4-dihydro-1H-2-benzopyran-7-yl)-N-[5-methoxy-2-(morpholin-4-yl)phenyl]methanesulfonamide], 8.01 to 9.99 µM. Same read-out and setting: as for `CN(C)S(=O)(=O)c1ccc(S(=O)(=O)Nc2cccc(Cl)c2N2CCOCC2)cc1` [Compound A-311, N4-[3-chloro-2-(morpholin-4-yl)phenyl]-N1,N1-dimethylbenzene-1,4-disulfonamide], the figure is 2.01 to 8 µM.

(Values after patent US20230104936A1, “TRPML MODULATORS” (Casma Therapeutics, Inc., priority 2019, published 2023).)
